Measurements published in patent US20240383856A1 (Zedira GmbH, priority 2021, published 2024).

Key:
[1] = target: T1, recombinant human transglutaminase 2 (Homo sapiens, UniProt P21980); test: Transglutaminase assay (DCC-assay): incorporation of dansylcadaverine into dimethylcasein; type: biochemical; conditions: recombinant human TG2 10 nM; dansylcadaverine incorporation into dimethylcasein; read-out: IC50 TG2
T1 construct: purchased Zedira T022
T1 sequence (P21980 1-687): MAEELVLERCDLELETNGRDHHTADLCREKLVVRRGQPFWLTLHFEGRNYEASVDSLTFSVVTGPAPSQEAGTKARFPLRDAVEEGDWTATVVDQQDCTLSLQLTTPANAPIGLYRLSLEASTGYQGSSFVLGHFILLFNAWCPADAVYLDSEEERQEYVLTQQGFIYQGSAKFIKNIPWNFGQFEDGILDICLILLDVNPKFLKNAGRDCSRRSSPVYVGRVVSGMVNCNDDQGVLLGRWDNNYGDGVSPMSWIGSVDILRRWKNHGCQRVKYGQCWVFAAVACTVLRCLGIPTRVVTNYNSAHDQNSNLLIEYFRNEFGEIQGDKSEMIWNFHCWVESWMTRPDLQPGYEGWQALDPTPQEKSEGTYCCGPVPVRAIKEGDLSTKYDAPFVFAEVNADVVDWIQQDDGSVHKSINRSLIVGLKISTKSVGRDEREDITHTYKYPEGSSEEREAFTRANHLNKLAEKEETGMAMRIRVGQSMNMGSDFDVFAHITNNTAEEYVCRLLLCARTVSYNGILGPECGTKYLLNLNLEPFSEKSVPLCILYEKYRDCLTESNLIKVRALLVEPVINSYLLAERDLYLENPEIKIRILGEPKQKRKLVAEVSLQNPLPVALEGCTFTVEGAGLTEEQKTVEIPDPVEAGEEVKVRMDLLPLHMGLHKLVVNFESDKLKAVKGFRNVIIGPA
Outline: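 IC50 is the inhibitor level that blocks 50% of initial activity. Activity is the fluorescence slope (λex 330, λem 500 nm) between 20 and 30 min of a 37 °C run, relative to a 2% DMSO control. The enzyme is recombinant human tissue transglutaminase, 10 nM final, tested against a 1:2 inhibitor dilution series in a pH 8.0 mix with 10 mM CaCl2, 10 mM glutathione, 16.7 µM dansylcadaverine and 4 µM N,N-dimethylcasein.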

[2] = logD by shake flask method (octanol / PBS pH 7.4, HPLC); type: physicochemical; conditions: octanol / PBS pH 7.4, shake flask
Outline: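 LogD obtained by HPLC measurement of how the compound distributes between PBS (pH 7.4) and octanol in a shake-flask experiment.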

[3] = Caco-2 permeability assay (CacoReady kit); type: in vitro ADME; conditions: human, Caco-2, Caco-2 barrier, CacoReady kit; above 1×10^−6 cm/s classified as permeable
Outline: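 Caco-2 monolayer barrier, commercial ready-to-use kit, manufacturer protocol. Read-out: Papp.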

IC50 [1] [nM] | logD [2] | Papp [3] [×10⁻⁶ cm/s] | Structure (SMILES)
40 to 400 | 1 to 3 | 1 to 10 | NC(=O)C(=O)CC[C@H](NC(=O)c1cc2ccccc2o1)C(=O)Nc1cccn(CC(=O)NC2C3CC4CC(C3)CC2C4)c1=O (stereo partly drawn) [II-124, (S)-2-(benzofuran-2-carboxamido)-N1-(1-(2-(2-adamantylamino)-2-oxoethyl)-2-oxo-1,2-dihydropyridin-3-yl)-5-oxohexanediamide]
40 to 400 | 1 to 3 | 1 to 10 | NC(=O)C(=O)CC[C@H](NC(=O)c1cc(Cl)sc1Cl)C(=O)Nc1cccn(CC(=O)NC2C3CC4CC(C3)CC2C4)c1=O (stereo partly drawn) [II-125, (S)-2-(2,5-dichlorothiophene-3-carboxamido)-N1-(1-(2-(2-adamantylamino)-2-oxoethyl)-2-oxo-1,2-dihydropyridin-3-yl)-5-oxohexanediamide]
40 to 400 | < 1 | 1 to 10 | Cc1nc(C(F)(F)F)sc1C(=O)N[C@@H](CCC(=O)C(N)=O)C(=O)Nc1cccn(CC(=O)NC2C3CC4CC(C3)CC2C4)c1=O (stereo partly drawn) [II-126, (S)-N1-(1-(2-(2-adamantylamino)-2-oxoethyl)-2-oxo-1,2-dihydropyridin-3-yl)-2-(4-methyl-2-(trifluoromethyl)thiazole-5-carboxamido)-5-oxohexanediamide]
40 to 400 | < 1 | < 1 | Cn1nncc1C(=O)N[C@@H](CCC(=O)C(N)=O)C(=O)Nc1cccn(CC(=O)NC2C3CC4CC(C3)CC2C4)c1=O (stereo partly drawn) [II-127, (S)-N1-(1-(2-(2-adamantylamino)-2-oxoethyl)-2-oxo-1,2-dihydropyridin-3-yl)-2-(1-methyl-1H-1,2,3-triazole-5-carboxamido)-5-oxohexanediamide]
40 to 400 | 1 to 3 | 1 to 10 | CNC(=O)C(=O)CC[C@H](NC(=O)c1cc(Cl)sc1Cl)C(=O)Nc1cccn(CC(=O)N[C@@H]2C[C@H]3CC[C@@H]2C3)c1=O [II-128, (2S)-N1-(1-(2-((1R,2R,4S)-bicyclo[2.2.1]heptan-2-ylamino)-2-oxoethyl)-2-oxo-1,2-dihydropyridin-3-yl)-2-(2,5-dichlorothiophene-3-carboxamido)-N6-methyl-5-oxohexanediamide]
40 to 400 | 1 to 3 | < 1 | CNC(=O)C(=O)CC[C@H](NC(=O)c1sc(C(F)(F)F)nc1C)C(=O)Nc1cccn(CC(=O)N[C@@H]2C[C@H]3CC[C@@H]2C3)c1=O [II-129, (2S)-N1-(1-(2-((1R,2R,4S)-bicyclo[2.2.1]heptan-2-ylamino)-2-oxoethyl)-2-oxo-1,2-dihydropyridin-3-yl)-N6-methyl-2-(4-methyl-2-(trifluoromethyl)thiazole-5-carboxamido)-5-oxohexanediamide]
40 to 400 | < 1 | < 1 | CNC(=O)C(=O)CC[C@H](NC(=O)c1cnnn1C)C(=O)Nc1cccn(CC(=O)N[C@@H]2C[C@H]3CC[C@@H]2C3)c1=O [II-130, (2S)-N1-(1-(2-((1R,2R,4S)-bicyclo[2.2.1]heptan-2-ylamino)-2-oxoethyl)-2-oxo-1,2-dihydropyridin-3-yl)-N6-methyl-2-(1-methyl-1H-1,2,3-triazole-5-carboxamido)-5-oxohexanediamide]
40 to 400 | < 1 | < 1 | CNC(=O)C(=O)CC[C@H](NC(=O)c1cn[nH]n1)C(=O)Nc1cccn(CC(=O)NC2C3CC4CC(C3)CC2C4)c1=O (stereo partly drawn) [II-131, (S)-N1-(1-(2-(2-adamantylamino)-2-oxoethyl)-2-oxo-1,2-dihydropyridin-3-yl)-N6-methyl-5-oxo-2-(2H-1,2,3-triazole-4-carboxamido) hexanediamide]
400 to 2500 | < 1 | 1 to 10 | CNC(=O)C(=O)CC[C@H](NC(=O)c1cn(C)nn1)C(=O)Nc1cccn(CC(=O)NC2C3CC4CC(C3)CC2C4)c1=O (stereo partly drawn) [II-133, (S)-N1-(1-(2-(2-adamantylamino)-2-oxoethyl)-2-oxo-1,2-dihydropyridin-3-yl)-N6-methyl-2-(1-methyl-1H-1,2,3-triazole-4-carboxamido)-5-oxohexanediamide]
400 to 2500 | < 1 | < 1 | CNC(=O)C(=O)CC[C@H](NC(=O)c1nc[nH]n1)C(=O)Nc1cccn(CC(=O)NC2C3CC4CC(C3)CC2C4)c1=O (stereo partly drawn) [II-134, (S)-N1-(1-(2-(2-adamantylamino)-2-oxoethyl)-2-oxo-1,2-dihydropyridin-3-yl)-N6-methyl-5-oxo-2-(1H-1,2,4-triazole-3-carboxamido)hexanediamide]
40 to 400 | < 1 | 1 to 10 | CNC(=O)C(=O)CC[C@H](NC(=O)c1ncn(C)n1)C(=O)Nc1cccn(CC(=O)NC2C3CC4CC(C3)CC2C4)c1=O (stereo partly drawn) [II-135, (S)-N1-(1-(2-(2-adamantylamino)-2-oxoethyl)-2-oxo-1,2-dihydropyridin-3-yl)-N6-methyl-2-(1-methyl-1H-1,2,4-triazole-3-carboxamido)-5-oxohexanediamide]
40 to 400 | 1 to 3 | 1 to 10 | CNC(=O)C(=O)CC[C@H](NC(=O)c1coc2ccccc12)C(=O)Nc1cccn(CC(=O)NC2C3CC4CC(C3)CC2C4)c1=O (stereo partly drawn) [II-136, (S)-2-(benzofuran-3-carboxamido)-N1-(1-(2-(2-adamantylamino)-2-oxoethyl)-2-oxo-1,2-dihydropyridin-3-yl)-N6-methyl-5-oxohexanediamide]
40 to 400 | 3 to 5 | 1 to 10 | CNC(=O)C(=O)CC[C@H](NC(=O)c1csc2ccccc12)C(=O)Nc1cccn(CC(=O)NC2C3CC4CC(C3)CC2C4)c1=O (stereo partly drawn) [II-137, (S)-2-(benzo[b]thiophene-3-carboxamido)-N1-(1-(2-(2-adamantylamino)-2-oxoethyl)-2-oxo-1,2-dihydropyridin-3-yl)-N6-methyl-5-oxohexanediamide]
400 to 2500 | < 1 | < 1 | CNC(=O)C(=O)CC[C@H](NC(=O)c1ccn(C)n1)C(=O)Nc1cccn(CC(=O)NC2C3CC4CC(C3)CC2C4)c1=O (stereo partly drawn) [II-138, (S)-N1-(1-(2-(2-adamantylamino)-2-oxoethyl)-2-oxo-1,2-dihydropyridin-3-yl)-N6-methyl-2-(1-methyl-1H-pyrazole-3-carboxamido)-5-oxohexanediamide]
400 to 2500 | < 1 | < 1 | CNC(=O)C(=O)CC[C@H](NC(=O)c1cnn(C)c1)C(=O)Nc1cccn(CC(=O)NC2C3CC4CC(C3)CC2C4)c1=O (stereo partly drawn) [II-139, (S)-N1-(1-(2-(2-adamantylamino)-2-oxoethyl)-2-oxo-1,2-dihydropyridin-3-yl)-N6-methyl-2-(1-methyl-1H-pyrazole-4-carboxamido)-5-oxohexanediamide]
40 to 400 | < 1 | < 1 | CNC(=O)C(=O)CC[C@H](NC(=O)c1ccnn1C)C(=O)Nc1cccn(CC(=O)NC2C3CC4CC(C3)CC2C4)c1=O (stereo partly drawn) [II-140, (S)-N1-(1-(2-(2-adamantylamino)-2-oxoethyl)-2-oxo-1,2-dihydropyridin-3-yl)-N6-methyl-2-(1-methyl-1H-pyrazole-5-carboxamido)-5-oxohexanediamide]
40 to 400 | < 1 | < 1 | CNC(=O)C(=O)CC[C@H](NC(=O)c1snnc1C)C(=O)Nc1cccn(CC(=O)NC2C3CC4CC(C3)CC2C4)c1=O (stereo partly drawn) [II-141, (S)-N1-(1-(2-(2-adamantylamino)-2-oxoethyl)-2-oxo-1,2-dihydropyridin-3-yl)-N6-methyl-2-(4-methyl-1,2,3-thiadiazole-5-carboxamido)-5-oxohexanediamide]
40 to 400 | 1 to 3 | < 1 | CNC(=O)C(=O)CC[C@H](NC(=O)c1cnsn1)C(=O)Nc1cccn(CC(=O)NC2C3CC4CC(C3)CC2C4)c1=O (stereo partly drawn) [II-142, (S)-N1-(1-(2-(2-adamantylamino)-2-oxoethyl)-2-oxo-1,2-dihydropyridin-3-yl)-N6-methyl-5-oxo-2-(1,2,5-thiadiazole-3-carboxamido)hexanediamide]
400 to 2500 | < 1 | < 1 | CNC(=O)C(=O)CC[C@H](NC(=O)c1c(I)cnn1C)C(=O)Nc1cccn(CC(=O)NC2C3CC4CC(C3)CC2C4)c1=O (stereo partly drawn) [II-143, (S)-2-(4-iodo-1-methyl-1H-pyrazole-5-carboxamido)-N1-(1-(2-(2-adamantylamino)-2-oxoethyl)-2-oxo-1,2-dihydropyridin-3-yl)-N6-methyl-5-oxohexanediamide]
